A word on the Kd: it is the constant that tells how readily two partners part at equilibrium.

Values joined by “and” are separate entries in the source; they are usually repeats but may differ in a detail not shown here. Equal entries are not always repeated. Non-standard residues stand in square brackets, D forms with d. No end group written: not given here. βAla = NCCC(=O)O

The values below come from US6627202B2, “HBV core antigen particles with multiple immunogenic components attached via peptide ligands” (Biogen, Inc., priority 1998, dated 2003).

Data set [1] deals with binding of L HBsAg to HBV core antigen (Hepatitis B virus genotype D subtype adw, UniProt P03147). The settings on record: N/D represents no observable inhibition; read-out: IC50 μM, concentration of peptide required to inhibit binding of L HBsAg to HBV core antigen at a half maximal level; cited from earlier work.
The target of data set [2] is HBV core antigen (Hepatitis B virus genotype D subtype adw, UniProt P03147). Particulars: fd fusion phage carrying the peptide sequence in the amino terminal region of gpIII; in solution, phage associated form; read-out: KD^Rel (nM) relative dissociation constant; cited from earlier work.
Data set [3] in a line: storage stability of HBV core antigen preparations. The class given is physicochemical. Particulars: 4° C., sucrose gradient fractions in TBS, sucrose (20%), NaN3 (0.02%). The method, then:
Expression of either HBV core antigen (aa3-183) or C-terminally truncated HBV core antigen aa3-148) in E.coli and purification were performed as described in Dyson and Murray (1995). Protein preparations were stored at 4° C. as sucrose gradient fractions in a buffer containing TBS, sucrose (20%) and NaN3 (0.02%).

Chain of binding of L HBsAg to HBV core antigen (P03147 3-183): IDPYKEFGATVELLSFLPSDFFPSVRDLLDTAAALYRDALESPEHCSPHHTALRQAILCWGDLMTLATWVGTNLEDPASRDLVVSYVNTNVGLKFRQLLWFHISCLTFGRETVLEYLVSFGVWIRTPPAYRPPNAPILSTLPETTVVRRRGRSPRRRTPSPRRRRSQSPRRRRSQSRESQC
Chain of HBV core antigen (P03147 3-183): as above

In the case of ACSLLGRMKG, the IC50 in data set [1] is 26.2 ± 5 µM. As to ADGAHRSLLGRMKGA, in data set [2], the Kd was 0.94 ± 0.12 nM. Regarding ADGALLGRMKPA, in data set [2], the Kd was 767 ± 8 nM.

Regarding ADGALLGRMKRA, in data set [2], the Kd was 181 ± 12 nM.

For ADGHRSSLLGRMKGA, the Kd in data set [2] was 1.4 ± 0.13 nM. Turning to ADGPRSSLLGRMKGA, the Kd in data set [2] was 0.84 ± 0.07 nM. As for ADGSLLGRMKGAAG, in data set [1], the IC50 is 4.5 ± 0.8 µM. For the molecule ADGSLLGRMKPA, the Kd in data set [2] is 322 ± 50 nM.

With ADGSRSSLLGRMKGA, the dissociation constant (Kd) in data set [2] was 1.96 ± 0.32 nM. Turning to ADGTLLGRMKLA, the Kd in data set [2] was 20 ± 2 nM. In the case of ADGTQRSLLGRMKGA, in data set [2], the Kd was 0.84 ± 0.06 nM.

For ADGYQRSLLGRMKGA, in data set [2], the Kd is 0.88 ± 0.08 nM. As to ADRSLLGRMKGA, in data set [2], the dissociation constant (Kd) was 1.09 ± 0.02 nM. With ALLGRMKG, the IC50 in data set [1] is 10 µM and 11 µM. With CLLGRMKC, in data set [1], the IC50 is 652 ± 74 µM. Consider DGSLLGRMKGAA, for which the IC50 in data set [1] was 3 ± 0.4 µM. As for HRSLLGRMKGA, the IC50 in data set [1] is 0.5 ± 0.04 µM. Regarding LGRMKG, the IC50 in data set [1] is 980 ± 157 µM.

LLGRMKG: the IC50 in data set [1] was 46.2 ± 7.4 µM.

In the case of MHRSLLGRMKGA, in data set [1], the IC50 was 0.8 ± 0.1 µM.

On to MHRSLLGRMKGAG(β-A)GC, for which, in data set [1], the IC50 was 3.8 ± 0.69 µM. In the case of RSLLGRMKGA, the IC50 in data set [1] was 0.29 ± 0.02 µM. Take RSLLGRMKGA(β-A)C (RSLLGRMKGA[βAla]C): in data set [1], the IC50 was 0.29 ± 0.03 µM.

Regarding SLLGRMK, the IC50 in data set [1] is 40.7 ± 4.8 µM. In the case of SLLGRMKG, the IC50 in data set [1] is 6.4 ± 0.7 µM. On to SLLGRMKG(β-A)C (SLLGRMKG[βAla]C), for which the IC50 in data set [1] is 1.8 ± 0.4 µM. For SLLGRMKGA, the IC50 in data set [1] was 2.4 ± 0.2 µM.

B1: C-terminally truncated HBV core antigen aa3-148: C-terminally truncated HBV core antigen expressed in E.coli (protein)
chain: IDPYKEFGATVELLSFLPSDFFPSVRDLLDTASALYREALESPEHCSPHHTALRQAILCWGELMTLATWVGVNLEDPASRDLVVSYVNTNMGLKFRQLLWFHISCLTFGRETVIEYLVSFGVWIRTPPAYRPPNAPILSTLPETTV
In the case of B1, the “stability of protein preparation on storage” value in data set [3] is “stable in this form for at least six months”.
